The values that follow come from ChEMBL document CHEMBL1150943, “Three dolabellanes and a macrolide from the sponge Dysidea sp. from Palau” (J Nat Prod, 1998).

One test has as its system A2780. As to the kind of experiment: Cytotoxicity against human A2780 cells after 72 hrs by MTS assay. The settings on record: A2780, 72 h. The format is functional, cell-based. A general note: Tetrazolium assays rely on reduction of a dye to a coloured formazan, in cell work by metabolically active cells.
A further test concerns HCT-116. In words: Cytotoxicity against human HCT116 cells after 72 hrs by MTS assay. The settings on record: HCT-116, 72 h. Type of test: functional, cell-based.

pIC50: −log10 of the molar value.

In turn, `CC(=O)O[C@H]1/C=C(/C)CC(=O)C[C@@H](C)/C=C/[C@@]2(C)CC[C@@H](C(C)(C)OC(C)=O)[C@H]12` (relative stereo) had a pIC50 with A2780 of 4.60. Regarding `C=C(CCCC(O)CC(C)O)C[C@H]1CC(=C)C[C@@H](O)C/C(C)=C/[C@H](O)CCCC(=O)O1` (stereo not given in full) [ARENOLIDE], the pIC50 in the test on A2780 was 5.01; in the test on HCT-116 it was 4.68. Turning to `CC(=O)O[C@H]1C/C(C)=C/C(=O)C[C@@H](C)/C=C/[C@@]2(C)CC[C@@H](C(C)(C)OC(C)=O)[C@H]12` (relative stereo), the pIC50 with A2780 is 4.38; with HCT-116 it was 4.10.

A word on the pIC50: it is the negative decadic logarithm of the IC50, by convention in mol/L. Read a low pIC50 as a high IC50.
